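Method: 48-hour compound exposure of cells in 96-well plates, five concentrations, linear interpolation of endpoints. At the TGI there is no net growth.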
How the values were obtained:
Assay in all cases: growth of human tumour cells (NCI), 48 h
A549 NSCLC = tested on: A549 NSCLC
CCRF-CEM leukemia = tested on: CCRF-CEM leukemia
DU-145 prostate = tested on: DU-145 prostate
EKVX NSCLC = tested on: EKVX NSCLC
HCT-15 colon = tested on: HCT-15 colon
HS 578T breast = tested on: HS 578T breast
HT29 colon = tested on: HT29 colon
K-562 leukemia = tested on: K-562 leukemia
M14 melanoma = tested on: M14 melanoma
NCI-H23 lung = tested on: NCI-H23 lung
NCI-H522 lung = tested on: NCI-H522 lung
OVCAR-3 ovarian = tested on: OVCAR-3 ovarian
OVCAR-5 ovarian = tested on: OVCAR-5 ovarian
RPMI-8226 leukemia = tested on: RPMI-8226 leukemia
SK-MEL-28 melanoma = tested on: SK-MEL-28 melanoma
HCT-116 colon = tested on: HCT-116 colon

| SMILES | TGI (A549 NSCLC) [µM] | TGI (CCRF-CEM leukemia) [µM] | TGI (DU-145 prostate) [µM] | TGI (EKVX NSCLC) [µM] | TGI (HCT-15 colon) [µM] | TGI (HS 578T breast) [µM] | TGI (HT29 colon) [µM] | TGI (K-562 leukemia) [µM] | TGI (M14 melanoma) [µM] | TGI (NCI-H23 lung) [µM] | TGI (NCI-H522 lung) [µM] | TGI (OVCAR-3 ovarian) [µM] | TGI (OVCAR-5 ovarian) [µM] | TGI (RPMI-8226 leukemia) [µM] | TGI (SK-MEL-28 melanoma) [µM] | TGI (HCT-116 colon) [µM] |
| --- | --- | --- | --- | --- | --- | --- | --- | --- | --- | --- | --- | --- | --- | --- | --- | --- |
| COC1/C=C/C(C)C(C(C)C(OC)C(C)CCC(=O)C(C)C(CC(=O)O)OC)OC(=O)/C=C/C=C(\C)CC(OC)CC2=CC(=O)O[C@H](C2)C(C)C(OC)CC(OC)/C=C/C(C)C(OC)C1 (stereo partly drawn) | > 4.35 | > 4.35 | > 4.35 | > 4.35 | > 4.35 | 0.387 | > 4.35 | > 4.35 | > 4.35 | > 4.35 | 1.82 | > 4.35 | > 4.35 | > 4.35 | 1.25 | – |
| Clc1c2ccccc2nc2c1[nH]c1ccccc12 | > 100 | > 100 | > 100 | > 100 | > 100 | > 100 | 34.3 | – | > 100 | > 100 | > 100 | > 100 | > 100 | 68.2 | > 100 | > 100 |
| COc1ccc(C(=O)/C=C/c2ccc(OCC(=N)N)cc2)cc1 | 33.1 | 25.7 | 25.4 | 30.8 | 31.7 | 34.9 | 28.8 | 20.1 | 32.6 | 43.3 | – | 27.5 | 83.9 | – | 28.6 | 16.7 |
| CC1(C)OC(=O)C(Cc2ccccc2)(Cc2ccccc2)C(=O)O1 | > 100 | > 100 | > 100 | > 100 | > 100 | > 100 | > 100 | > 100 | > 100 | > 100 | > 100 | – | > 100 | – | > 100 | > 100 |
| C#CC1NC(=O)C1N(CC)CC (stereo not drawn) | – | > 100 | > 100 | > 100 | > 100 | > 100 | > 100 | > 100 | > 100 | > 100 | > 100 | > 100 | > 100 | > 100 | > 100 | > 100 |
| N/C(=N\S(=O)(=O)c1cc(Cl)c(Oc2ccc([N+](=O)[O-])cc2Cl)c(Cl)c1)Nc1ccc(Cl)cc1 | 35.9 | 52.1 | 35.8 | 36.6 | 33.3 | > 100 | 54.4 | 43.1 | 36.4 | 32.1 | > 100 | 37.6 | 53.6 | – | 33 | 34.3 |
| CC1(C)C2CCC(O)(C2)C1N (stereo not drawn) | > 100 | > 100 | > 100 | > 100 | > 100 | > 100 | > 100 | > 100 | > 100 | > 100 | – | > 100 | > 100 | > 100 | > 100 | > 100 |
| CCCCCCCCC/C=C1/CC(CO)(COC(=O)c2ccccc2)OC1=O (stereo not drawn) | 26.7 | 28.7 | 25.5 | 28.2 | 29.8 | 13 | 31.6 | 22.5 | 30.8 | 28.3 | 26.6 | 31.2 | 24.6 | – | 26.6 | 56.2 |
| CNC(=O)NS(=O)(=O)c1ccc(C)cc1 | > 100 | > 100 | > 100 | – | > 100 | > 100 | > 100 | > 100 | > 100 | > 100 | > 100 | – | > 100 | > 100 | > 100 | > 100 |
| Cc1ccc(N2C(N)=C(C#N)C(C#N)(C#N)C2c2ccccc2)cc1 (stereo not drawn) | 38.2 | 7.33 | 28.2 | 46 | 22.6 | 76.7 | 13.9 | – | 30.5 | 38.1 | 21.5 | 27.4 | 32.4 | 32.1 | 22.3 | 14.4 |
| CC1=NN(c2nc(N)nc(/C(C#N)=C\c3cccc([N+](=O)[O-])c3)n2)C(C)(C)C1 | > 56.8 | > 66.8 | 50.8 | > 100 | > 47.6 | 78.6 | > 100 | > 35.4 | > 48.9 | > 72 | – | 26.9 | > 100 | 13.1 | > 65 | > 42.1 |
| O=[N+]([O-])c1cccc(N=Nc2c(O)ccc3ccccc23)c1 | > 100 | 56.7 | > 100 | > 100 | > 100 | > 100 | > 100 | > 100 | > 100 | > 100 | > 100 | – | > 100 | > 100 | > 100 | > 100 |
| O=C1O/C(=C\c2ccc(O)cc2)C(c2ccc(O)c(Cl)c2)=C1Cl | > 100 | > 100 | > 100 | > 100 | > 100 | > 100 | > 100 | > 100 | > 100 | 76.6 | 53.3 | > 100 | > 100 | > 100 | > 100 | – |
| O=C(C/C=C/c1ccccc1)c1ccccc1 | 26 | 64.8 | 31 | > 100 | 37 | 58.6 | 65.5 | – | 32.2 | 31.6 | 34.1 | > 100 | > 100 | 83.5 | 53.6 | 33.1 |
| COC(=O)/C(C#N)=C(\N)c1c(C)c2ccccc2oc1=N | > 100 | – | > 100 | > 100 | > 100 | > 100 | – | > 100 | – | – | > 100 | > 100 | > 100 | > 100 | > 100 | > 100 |
| S=C=NC1CCC(c2cc3ccccc3s2)(N2CCCCC2)CC1 (stereo not drawn) | 11.1 | 2.5 | 4.52 | 4.69 | 3.7 | 4.73 | 3.66 | 1.98 | 4.39 | 3.85 | 3.23 | 4.34 | 3.7 | – | 3.39 | 3.58 |
| O=C1c2ccccc2C(=O)N1CC(CN1C(=O)c2ccccc2C1=O)(C(=O)OCc1ccccc1)C(=O)OCc1ccccc1 | – | > 100 | > 100 | – | > 100 | > 100 | > 100 | – | > 100 | > 100 | > 100 | > 100 | > 100 | > 100 | > 100 | > 100 |
| CCO/C(Cc1ccc(Cl)cc1)=N/NC(N)=S | > 100 | > 100 | > 100 | > 100 | > 100 | > 100 | > 100 | > 100 | > 100 | > 100 | – | > 100 | > 100 | – | > 100 | > 100 |
| CCCCOC(=O)c1cc(C(=CCC[C@H]2CC[C@@]3(C)[C@@H](CC[C@@H]4[C@@H]3CC[C@]3(C)[C@@H](C(C)CCCC(C)C)CC[C@@H]43)C2)c2cc(Cl)c(O)c(C(=O)OCCCC)c2)cc(Cl)c1O (stereo partly drawn) | – | > 50 | > 50 | > 50 | > 50 | > 50 | > 50 | > 5 | – | > 50 | – | > 50 | – | > 50 | – | > 50 |
| COC(=O)C1=NN2c3ccccc3CN([C@@H](C)c3ccccc3)C(=O)[C@@H]2[C@H]1c1ccccc1 | > 100 | > 100 | > 100 | > 100 | > 100 | > 100 | > 100 | > 100 | > 100 | > 100 | > 100 | > 100 | > 100 | – | > 100 | > 100 |
| Cc1csc(NNC(=O)Nc2ccccc2)n1 | > 100 | > 100 | > 100 | > 100 | > 100 | > 100 | > 100 | > 100 | > 100 | > 100 | > 100 | – | > 100 | > 100 | > 100 | > 100 |
| C=CC1(C)OC2(CCN(C(=O)OCC)CC2)OC1C (stereo not drawn) | > 100 | > 100 | > 100 | > 100 | > 100 | > 100 | > 100 | > 100 | > 100 | > 100 | > 100 | > 100 | > 100 | > 100 | > 100 | – |
| c1ccc([P+](c2ccccc2)(c2ccccc2)C2c3ccccc3-c3ccccc32)cc1 | 14.3 | 7.61 | 60.6 | – | 11 | 5.75 | 4.04 | > 100 | 11.3 | 5.38 | 6.06 | 5.68 | 42 | – | 8.03 | 2.39 |
| COC1C(O)C(C)OC(OC2CCC3(C)C(CCC4C3C(O)CC3(C)C(C5=CC(=O)OC5)CCC43O)C2)C1O (stereo not drawn) | 0.192 | – | 0.173 | 0.536 | 1.03 | > 100 | 2.23 | 5.28 | 1.02 | 0.308 | 0.251 | 0.553 | 1.77 | 0.793 | 1.62 | 0.533 |
| CC(O)[C@@]1(c2ccccc2)CC2(CCN(C)CC2)O[C@H]1C (stereo partly drawn) | > 100 | 79 | > 100 | > 100 | > 100 | > 100 | > 100 | > 100 | > 100 | > 100 | > 100 | > 100 | > 100 | > 100 | > 100 | – |
| c1ccc([P+](CCCCCC[P+](c2ccccc2)(c2ccccc2)c2ccccc2)(c2ccccc2)c2ccccc2)cc1 | > 100 | > 100 | > 100 | > 100 | > 100 | > 100 | > 100 | > 100 | > 100 | 69.6 | > 100 | > 100 | > 100 | – | > 100 | > 100 |
| COC1=CC(=O)C2=C(C[C@@]3(C)C(=C2)C(CO)=CC[C@H]3O)C1=O | > 100 | 38.4 | > 100 | 38.8 | 88.5 | > 100 | > 100 | 24 | 44.2 | 48.7 | – | 56.2 | 54.5 | 44.5 | 82.7 | 40.8 |
| CCCCc1ccc(C#CC#Cc2ccc(CCCC)s2)s1 | – | > 100 | > 100 | > 100 | > 100 | > 100 | > 100 | – | > 100 | > 100 | > 100 | > 100 | > 100 | > 100 | – | > 100 |
| C/C(Cc1ccc2c(c1)OCO2)=N\NC(=O)C(C)Sc1nnc(SC(C)C(=O)N/N=C(\C)Cc2ccc3c(c2)OCO3)s1 (stereo not drawn) | > 100 | > 100 | > 100 | > 100 | > 100 | > 100 | > 100 | > 100 | > 100 | > 100 | – | > 100 | > 100 | > 100 | > 100 | > 100 |
| Cc1c(F)c(NC(=O)CN(C)C)c2c(=O)cc(-c3ccc(NC(=O)CN(C)C)c(F)c3)oc2c1F | 35.6 | 57 | 26.5 | – | 33.7 | 56.5 | 33.8 | 37.5 | 31.7 | 36.1 | 41.4 | – | 41.1 | 38.9 | 40.9 | 29.3 |

— PubChem BioAssay (NCI)
